The values that follow are results of earlier work, collected in US20040147441A1, “Methods and reagents for preventing bacteremias” (priority 2002, published 2004).

Values after ≈ are worked out from the molar mass of the structure shown.

The test system of data set [1] is E. faecalis (strains K-99-34, K-00-184, and K-00-221). The conditions noted are these: Rhee 2002.
Data set [2] relates to C. Difficile. The conditions noted are these: Dong et al. 1987.
The test system of data set [3] is S. aureus Strain Smith. The conditions noted are these: Mueller-Hinton Broth.
Data set [4] has as its system E. facium (multidrug resistant). The settings on record: Mobarakai et al. 1994.
Data set [5] deals with S. pyrogens.
For data set [6], the system named is S. pneumoniae (penicillin resistant).
Data set [7] relates to E. facium (vancomycin resistant).
Data set [8] concerns S. aureus (methicillin resistant).
Data set [9] has as its system E. faecalis (vancomycin susceptible).
Data set [10] deals with S. aureus (methicillin susceptible). The conditions noted are these: J. Antimicrob. Chemother. 48: 283-286, 2001.
Data set [11] deals with S. pneumoniae (penicillin susceptible).
Data set [12] concerns E. facium (vancomycin susceptible).

Take `CC(C)C[C@@H]1NC(=O)[C@@H]2CCCN2C1=O` [Cyclo(leu-pro), cyclo-(Leu-Pro)]: the “MIC (minimal growth inhibitory concentration)” value in data set [1] is recorded as “MIC = 12.5 μg/ml”.

For the molecule `CCCCCCCCCC(=O)N[C@@H](Cc1c[nH]c2ccccc12)C(=O)N[C@H](CC(N)=O)C(=O)N[C@@H](CC(=O)O)C(=O)N[C@@H]1C(=O)NCC(=O)N[C@@H](CCCN)C(=O)N[C@@H](CC(=O)O)C(=O)N[C@H](C)C(=O)N[C@@H](CC(=O)O)C(=O)NCC(=O)N[C@H](CO)C(=O)N[C@@H]([C@H](C)CC(=O)O)C(=O)N[C@@H](CC(=O)c2ccccc2N)C(=O)O[C@@H]1C` [daptomycin], the “MIC (minimal growth inhibitory concentration)” value in data set [2] is given as “MIC = 16.0 μg/ml”; in data set [4], “MIC = 2.0-4.0 μg/ml”. Moreover, the “MIC (no CaCl2)” value in [3] is 1 µg/mL (≈ 0.617 µM). For the same molecule, in data set [3], the “MIC (with CaCl2)” value is 0.5 µg/mL (≈ 0.309 µM).

For the molecule `CN[C@H](CC(C)C)C(=O)N[C@H]1C(=O)N[C@@H](CC(N)=O)C(=O)N[C@H]2C(=O)N[C@H]3C(=O)N[C@H](C(=O)N[C@H](C(=O)O)c4cc(O)cc(O)c4-c4cc3ccc4O)[C@H](O[C@H]3C[C@](C)(N)[C@@H](O)[C@H](C)O3)c3ccc(c(Cl)c3)Oc3cc2cc(c3O[C@@H]2O[C@H](CO)[C@@H](O)[C@H](O)[C@H]2O[C@H]2C[C@](C)(NCc3ccc(-c4ccc(Cl)cc4)cc3)[C@@H](O)[C@H](C)O2)Oc2ccc(cc2Cl)[C@H]1O` [oritavancin], the “MBC (minimal bactericidal concentration)” value in [5] was 0.5 to 1.0 µg/mL; in data set [6], “MIC = <0.03; MBC = <0.03 μg/ml”; in data set [7] it was 4.0 to 8.0 µg/mL; in [8] it was 8.0 to 16.0 µg/mL; in data set [9], 1.0 to 2.0 µg/mL; in [10], 4.0 to 8.0 µg/mL. For the same molecule, the “MBC (minimal bactericidal concentration)” value in data set [11] is “MIC = <0.03; MBC = <0.03 μg/ml”; in data set [12] it was 1.0 to 2.0 µg/mL. Besides, the “MIC (minimal growth inhibitory concentration)” value in data set [5] was 0.12 to 0.25 µg/mL; in [6], “MIC = <0.03; MBC = <0.03 μg/ml”; in data set [7] it was 1.0 to 2.0 µg/mL; in [8], 2.0 to 4.0 µg/mL; in data set [9], 0.5 to 1.0 µg/mL; in [10], 2.0 to 4.0 µg/mL. For the same molecule, the “MIC (minimal growth inhibitory concentration)” value in [11] was “MIC = <0.03; MBC = <0.03 μg/ml”; in [12], 0.12 to 0.25 µg/mL.

Take Aspartocin: in [3], the “MIC (no CaCl2)” value was 2 µg/mL and the “MIC (with CaCl2)” value was 1 µg/mL.

Take Laspartomycin: in [3], the “MIC (no CaCl2)” value was 16 µg/mL and the “MIC (with CaCl2)” value was 2 µg/mL.

In the case of Zaomycin, in data set [3], the “MIC (no CaCl2)” value was 10 µg/mL and the “MIC (with CaCl2)” value was 1 µg/mL.

On to teicoplanin, for which the “MBC (minimal bactericidal concentration)” value in data set [5] was 0.06 to 0.25 µg/mL; in data set [6], “MIC = <0.03; MBC = <0.03 μg/ml”; in data set [7] it was “MIC = >16.0; MBC = >16.0 μg/ml”; in [8] it was 8.0 to 16.0 µg/mL; in [9], 2.0 to 4.0 µg/mL; in data set [10], 2.0 to 8.0 µg/mL. Further, the “MBC (minimal bactericidal concentration)” value in data set [11] was “MIC = <0.03; MBC = <0.03 μg/ml”; in data set [12] it was 2.0 to 4.0 µg/mL. In addition, the “MIC (minimal growth inhibitory concentration)” value in [5] was 0.03 to 0.06 µg/mL; in [6], “MIC = <0.03; MBC = <0.03 μg/ml”; in [7], “MIC = >16.0; MBC = >16.0 μg/ml”; in [8], 2.0 to 4.0 µg/mL; in [9], above 0.25 µg/mL; in [10], 0.5 to 4.0 µg/mL. The “MIC (minimal growth inhibitory concentration)” value in data set [4] was “MIC 8.0-1,024 μg/ml”; in data set [11] it was “MIC = <0.03; MBC = <0.03 μg/ml”; in [12], 0.25 to 0.5 µg/mL.
